Starred links: 1 amine or outer side, 2 acyl side, 3 side chain; linkers in the order of their positions; H or OH if unused. Non-standard residues stand in square brackets, D forms with d. Residues, ends and D or L forms follow the SMILES beside them. X4 = CC(C)C[C@H](N[*:1])C(=S)N1CCC[C@@H]1C(=O)[*:2]
Legend:
[1] = format: physicochemical
[2] = PAMPA passive permeability; format: in vitro ADME;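 note: passive permeability across an artificial membrane in 96-well pre-coated PAMPA plates, which lack transporters and efflux systems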
Procedure: Encouraged by this, the passive permeability of the analogs was evaluated using an artificial membrane (PAMPA), which measures permeability of compounds in the absence of transporters and efflux systems[32].
96-well BD Corning® pre-coated PAMPA plates were used following the supplier’s protocol, details in Supplementary Information.

[3] = format: physicochemical; remark: listed apart in the source
[4] = in vitro; format: in vitro ADME, human
Procedure: (§1) The Caco-2 cell (HTB-37^TM from ATCC, procured from NCCS, Pune) monolayer was washed and pre-incubated at 37 °C and 5% CO2 for 30 min with HBSS-HEPES buffer containing 1% DMSO prior to experimentation. The assay was performed 21 days post-seeding of cells. TEER values were measured before starting and after the completion of the assay. Acceptor and donor well concentrations of the peptides and controls were assessed through LC-MS/MS.

[5] = tested on: Caco-2 cells; assay: in vitro; format: in vitro ADME, human; details: Caco-2
Procedure: as §1

[6] = tested on: human liver microsomes
Procedure: (§2) A stability assessment of the peptides was done in simulated gastric (SGF) and intestinal (SIF) fluids and human liver microsomes. The degradation kinetics of the aliquoted samples at desired time points were analyzed through RP-HPLC.

[7] = physchem; details: pH 7.4
[8] = in vitro; details: both, human, plasma
[9] = target: pepsin (Sus scrofa, UniProt P00791); assay: in vitro; details: simulated gastric fluid, pH 1.2
Sequence of pepsin (P00791 60-385): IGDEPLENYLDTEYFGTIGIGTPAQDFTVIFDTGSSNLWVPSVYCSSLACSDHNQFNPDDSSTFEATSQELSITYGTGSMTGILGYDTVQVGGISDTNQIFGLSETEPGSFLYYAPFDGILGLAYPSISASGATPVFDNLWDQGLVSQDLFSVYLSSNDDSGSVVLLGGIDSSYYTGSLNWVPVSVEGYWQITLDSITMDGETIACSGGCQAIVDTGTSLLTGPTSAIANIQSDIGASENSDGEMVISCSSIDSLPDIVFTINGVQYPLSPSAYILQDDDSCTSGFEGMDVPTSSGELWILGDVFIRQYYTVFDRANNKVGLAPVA
Procedure: as §2

[10] = in vitro; details: pig, simulated intestinal fluid
[11] = in vitro; details: human, microsomes
Procedure: as §2

[12] = in vitro; details: both, human, plasma; remark: listed apart in the source
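Throughout, for Papp A-B + Elacridar avg: Caco-2 monolayers used 21 days after seeding in HBSS-HEPES buffer with 1% DMSO, donor and acceptor levels quantified by LC-MS/MS, TEER checked before and after.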
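Throughout, for Papp A-B + Elacridar set 1: Caco-2 monolayers used 21 days after seeding in HBSS-HEPES buffer with 1% DMSO, donor and acceptor levels quantified by LC-MS/MS, TEER checked before and after.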
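Throughout, for Papp A-B + Elacridar set 2: Caco-2 monolayers used 21 days after seeding in HBSS-HEPES buffer with 1% DMSO, donor and acceptor levels quantified by LC-MS/MS, TEER checked before and after.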
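Throughout, for Papp A-B avg: Caco-2 monolayers used 21 days after seeding in HBSS-HEPES buffer with 1% DMSO, donor and acceptor levels quantified by LC-MS/MS, TEER checked before and after.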

% solubility [1]: 69% | Pe Avg [2]: 3.1 ×10⁻⁶ cm/s | Pe set1 [2]: 2.92 ×10⁻⁶ cm/s | Pe set2 [2]: 3.69 ×10⁻⁶ cm/s | Pe set3 [2]: 2.79 ×10⁻⁶ cm/s | Papp ([2]; Pe Avg): 3.1 ×10⁻⁶ cm/s | logD heptane ethylene glycol [3]: 0.72 | Papp B→A ([4]; Caco-2, Papp B-A + Elacridar avg): 0.6 ×10⁻⁶ cm/s | Papp B→A ([4]; Caco-2, Papp B-A avg): 5.26 ×10⁻⁶ cm/s | Papp A-B + Elacridar avg [5]: 0 ×10⁻⁶ cm/s | Papp A-B + Elacridar set 1 [5]: 0 ×10⁻⁶ cm/s | Papp A-B + Elacridar set 2 [5]: 0 ×10⁻⁶ cm/s | Papp A-B avg [5]: 0 cm/s | Papp A-B avg (second block) [5]: 0.00 cm/s | Papp A-B set 1 [5]: 0 cm/s | Papp A-B set 1 (second block) [5]: 0.00 cm/s | Papp A-B set 2 [5]: 0 cm/s | Papp A-B set 2 (second block) [5]: 0.00 cm/s | Papp AB+Elacridar (PAMPA Caco2 correlation) [5]: 0 ×10⁻⁶ cm/s | Papp B-A avg (second block) [5]: 5.3 ×10⁻⁶ cm/s | Papp B-A set 1 (second block) [5]: 4.5 ×10⁻⁶ cm/s | Papp B-A set 2 (second block) [5]: 6.1 ×10⁻⁶ cm/s | Half lives [6]: 13.8 | logD [7]: 1.27 | fraction unbound [8]: 0.24 | half-life [9]: 20 min | remaining at 5 min [9]: 76% | remaining at 10 min [9]: 68% | remaining at 20 min [9]: 50% | remaining at 0.5 h [9]: 41% | remaining at 1 h [9]: 31% | remaining at 2 h [9]: 26% | remaining at 4 h [9]: 19% | remaining at 8 h [9]: 12% | remaining at 12 h [9]: 5% | remaining at 24 h [9]: 0% | half-life [10]: 34 min | remaining at 10 min [10]: 70% | remaining at 0.5 h [10]: 50.7% | remaining at 1 h [10]: 46.6% | remaining at 2 h [10]: 38.4% | remaining at 4 h [10]: 29.3% | remaining at 8 h [10]: 26.2% | remaining at 12 h [10]: 20.6% | remaining at 24 h [10]: 12.8% | microsomal CLint [11]: 106 µL/min/mg | remaining at 5 min [11]: 76% | remaining at 10 min [11]: 56% | remaining at 20 min [11]: 45% | remaining at 0.5 h [11]: 35% | remaining at 0.75 h [11]: 16% | remaining at 1 h [11]: 17% | half-life [12]: 1260 min | remaining at 1 h [12]: 87% | remaining at 3 h [12]: 83% | remaining at 5 h [12]: 78% | remaining at 7 h [12]: 75% | remaining at 9 h [12]: 64% | remaining at 12 h [12]: 60% | remaining at 24 h [12]: 44% | remaining at 36 h [12]: 34% | remaining at 48 h [12]: 26% | remaining at 60 h [12]: 10% | remaining at 72 h [12]: 12%
Structure (SMILES): CC(C)C[C@@H]1NC(=O)[C@H](Cc2ccc(O)cc2)NC(=O)[C@H]2CCCN2C(=S)[C@H](CC(C)C)NC(=O)[C@H](CC(C)C)NC(=O)[C@@H](CC(C)C)NC1=O [10c] (cyclo(L[dL]L[X4]Y))
